Measured values from PubChem BioAssay AID1963863 (Molecular Pharmacology Branch, DTP, NCI, 2024).

Test system: 931267-113-T-J1-PDC KRAS spheroid with HUVEC/MSC, viability
Experiment: Anticancer human tumor 931267-113-T-J1-PDC patient-derived colon adenocarcinoma cell line growth inhibition [KRAS2]
Details: for IC50: curve of first compound; for viability, T/C: stronger effect = lower value
Outline: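 KRAS-mutant tumor cells were grown as spheroids with HUVEC endothelial cells and human MSCs as stroma. Targeted agents were tested alone and with KRAS pathway inhibitors. Doses started at or near clinical Cmax, or 10 microM, descending half-log.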

[1] = second compound 0.1 µM, first compound 0.0316 µM
[2] = second compound 0.1 µM, first compound 0.1 µM
[3] = second compound 0.1 µM, first compound 0.316 µM
[4] = second compound 0.1 µM, first compound 1 µM
[5] = second compound 0.1 µM, first compound 3.16 µM
[6] = second compound 0.1 µM, first compound 10 µM
[7] = second compound 0.316 µM, first compound 0.0316 µM
[8] = second compound 0.316 µM, first compound 0.1 µM
[9] = second compound 0.316 µM, first compound 0.316 µM
[10] = second compound 0.316 µM, first compound 1 µM
[11] = second compound 0.316 µM, first compound 3.16 µM
[12] = second compound 0.316 µM, first compound 10 µM
[13] = second compound 1 µM, first compound 0.0316 µM
[14] = second compound 1 µM, first compound 0.1 µM
[15] = second compound 1 µM, first compound 0.316 µM
[16] = second compound 1 µM, first compound 1 µM
[17] = second compound 1 µM, first compound 3.16 µM
[18] = second compound 1 µM, first compound 10 µM
[19] = second compound 3.16 µM, first compound 0.0316 µM
[20] = second compound 3.16 µM, first compound 0.1 µM
[21] = second compound 3.16 µM, first compound 0.316 µM
[22] = second compound 3.16 µM, first compound 1 µM
[23] = second compound 3.16 µM, first compound 3.16 µM
[24] = second compound 3.16 µM, first compound 10 µM
[25] = second compound 10 µM, first compound 0.0316 µM
[26] = second compound 10 µM, first compound 0.1 µM
[27] = second compound 10 µM, first compound 0.316 µM
[28] = second compound 10 µM, first compound 1 µM
[29] = second compound 10 µM, first compound 3.16 µM
[30] = second compound 10 µM, first compound 10 µM
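Further: compound exposure lasted 7 days before the readout.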
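Wherever viability, T/C is given: 100% = DMSO vehicle control viability.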

COc1cc(Nc2ncc3c(n2)-c2ccc(Cl)cc2C(c2c(F)cccc2OC)=NC3)ccc1C(=O)O + CC1OCC2(CCN(c3cnc(Sc4ccnc(N)c4Cl)c(N)n3)CC2)C1N was tested, and the IC50 (second compound 0.1 µM) was over 10000 nM, the IC50 (second compound 0.316 µM) was 6420 nM and the IC50 (second compound 1 µM) was 848 nM. It also gave an IC50 (second compound 3.16 µM) of 571 nM, an IC50 (second compound 10 µM) of 799 nM and a viability, T/C [1] of 69.3%. The viability, T/C [2] was 75.1%, the viability, T/C [3] was 58.4% and the viability, T/C [4] was 58%. For the same compound, the viability, T/C [5] was 51.7%, the viability, T/C [6] was 54% and the viability, T/C [7] was 67.4%. For the same compound, the viability, T/C [8] was 68.7%, the viability, T/C [9] was 57.1% and the viability, T/C [10] was 61.3%. For the same compound, the viability, T/C [11] was 49%, the viability, T/C [12] was 49.5% and the viability, T/C [13] was 62.4%. It also gave a viability, T/C [14] of 52.4%, a viability, T/C [15] of 54.4% and a viability, T/C [16] of 51.5%. The viability, T/C [17] was 41.3%, the viability, T/C [18] was 31.6% and the viability, T/C [19] was 53.4%. The viability, T/C [20] was 64.6%, the viability, T/C [21] was 56.8% and the viability, T/C [22] was 42%. For the same compound, the viability, T/C [23] was 33.3%, the viability, T/C [24] was 21.6% and the viability, T/C [25] was 70.2%. For the same compound, the viability, T/C [26] was 65.4%, the viability, T/C [27] was 51.1% and the viability, T/C [28] was 46.8%. For the same compound, the viability, T/C [29] was 43.3% and the viability, T/C [30] was 15.8%.

COc1cc2nccc(Oc3ccc(NC(=O)C4(C(=O)Nc5ccc(F)cc5)CC4)cc3)c2cc1OC + CC1OCC2(CCN(c3cnc(Sc4ccnc(N)c4Cl)c(N)n3)CC2)C1N gave an IC50 (second compound 0.1 µM) of over 10000 nM, an IC50 (second compound 0.316 µM) of 2790 nM and an IC50 (second compound 1 µM) of 3060 nM. The IC50 (second compound 3.16 µM) was 4530 nM, the IC50 (second compound 10 µM) was 2930 nM and the viability, T/C [1] was 87%. For the same compound, the viability, T/C [2] was 116%, the viability, T/C [3] was 102% and the viability, T/C [4] was 88.8%. It also gave a viability, T/C [5] of 51.4%, a viability, T/C [6] of 66.6% and a viability, T/C [7] of 81.9%. It also gave a viability, T/C [8] of 91.9%, a viability, T/C [9] of 84.9% and a viability, T/C [10] of 99.5%. The viability, T/C [11] was 45.1%, the viability, T/C [12] was 37.4% and the viability, T/C [13] was 92.8%. It also gave a viability, T/C [14] of 95.8%, a viability, T/C [15] of 86.3% and a viability, T/C [16] of 88.2%. The viability, T/C [17] was 48.1%, the viability, T/C [18] was 49.5% and the viability, T/C [19] was 78.6%. For the same compound, the viability, T/C [20] was 99%, the viability, T/C [21] was 91.3% and the viability, T/C [22] was 92.1%. It also gave a viability, T/C [23] of 57.5%, a viability, T/C [24] of 33.5% and a viability, T/C [25] of 99.2%. For the same compound, the viability, T/C [26] was 101%, the viability, T/C [27] was 93.3% and the viability, T/C [28] was 86.5%. For the same compound, the viability, T/C [29] was 47.1% and the viability, T/C [30] was 30.5%.

Cn1ncnc1[C@H]1c2n[nH]c(=O)c3cc(F)cc(c23)N[C@@H]1c1ccc(F)cc1 + CC1OCC2(CCN(c3cnc(Sc4ccnc(N)c4Cl)c(N)n3)CC2)C1N gave an IC50 (second compound 0.1 µM) of over 100 nM, an IC50 (second compound 0.316 µM) of over 100 nM and an IC50 (second compound 1 µM) of over 100 nM. It also gave an IC50 (second compound 3.16 µM) of over 100 nM, an IC50 (second compound 10 µM) of over 100 nM and a viability, T/C (second compound 0.1 µM, first compound 0.000316 µM) of 93.9%. The viability, T/C (second compound 0.1 µM, first compound 0.001 µM) was 97.8%, the viability, T/C (second compound 0.1 µM, first compound 0.00316 µM) was 89.2% and the viability, T/C (second compound 0.1 µM, first compound 0.01 µM) was 89.3%. The viability, T/C [1] was 90.3%, the viability, T/C [2] was 80.5% and the viability, T/C (second compound 0.316 µM, first compound 0.000316 µM) was 84%. The viability, T/C (second compound 0.316 µM, first compound 0.001 µM) was 91.4%, the viability, T/C (second compound 0.316 µM, first compound 0.00316 µM) was 91.2% and the viability, T/C (second compound 0.316 µM, first compound 0.01 µM) was 78.9%. It also gave a viability, T/C [7] of 60.8%, a viability, T/C [8] of 68.4% and a viability, T/C (second compound 1 µM, first compound 0.000316 µM) of 85.8%. The viability, T/C (second compound 1 µM, first compound 0.001 µM) was 85.3%, the viability, T/C (second compound 1 µM, first compound 0.00316 µM) was 85.4% and the viability, T/C (second compound 1 µM, first compound 0.01 µM) was 95.2%. For the same compound, the viability, T/C [13] was 70.3%, the viability, T/C [14] was 51.2% and the viability, T/C (second compound 3.16 µM, first compound 0.000316 µM) was 83.7%. It also gave a viability, T/C (second compound 3.16 µM, first compound 0.001 µM) of 93.5%, a viability, T/C (second compound 3.16 µM, first compound 0.00316 µM) of 84.7% and a viability, T/C (second compound 3.16 µM, first compound 0.01 µM) of 80.6%. It also gave a viability, T/C [19] of 91.4%, a viability, T/C [20] of 69.7% and a viability, T/C (second compound 10 µM, first compound 0.000316 µM) of 77.6%. For the same compound, the viability, T/C (second compound 10 µM, first compound 0.001 µM) was 73.5%, the viability, T/C (second compound 10 µM, first compound 0.00316 µM) was 85.3% and the viability, T/C (second compound 10 µM, first compound 0.01 µM) was 77.8%. The viability, T/C [25] was 71% and the viability, T/C [26] was 51%.
